Measured values published in publication PMC5362113 (Journal of medicinal chemistry, 2016).
“And” between values parts separate entries of the source, which are not always exact repeats. Equal entries are not always repeated. Each block holds one compound with its values, some of them ahead of it.

How the values were obtained:
[1] = In vitro liver microsome assay, human; type: in vitro ADME; settings: pooled liver microsomes
[2] = In vitro liver microsome assay, mouse; type: in vitro ADME; settings: pooled liver microsomes
[3] = system: T. b. brucei (strain BF427); assay: T. brucei growth inhibition assay; type: cell-based; settings: T. b. brucei BF427, 48 h, Alamar Blue
[4] = Brain time-course experiment of compound 57 after oral dosing; type: in vivo; settings: mice, single oral dose 50 mg/kg
[5] = system: CRL-8155 (human lymphoblasts); assay: Cytotoxicity in mammalian cells, CRL-8155; settings: 48 h, growth inhibition by 50%
[6] = Mouse oral pharmacokinetics; type: in vivo; settings: mice, 50 mg/kg oral, Tween 80/EtOH/DMSO vehicle
[7] = Efficacy PK in acute model; type: in vivo, mice; settings: 50 mg/kg po b.i.d., prior to dose 7 (predose)
[8] = Efficacy PK in chronic model; type: in vivo, mice; settings: 50 mg/kg po b.i.d., prior to dose 15 (predose)
[9] = system: HepG2 cells (human hepatocellular carcinoma); assay: Cytotoxicity in mammalian cells, HepG2; type: cell-based; settings: human hepatocytes, 48 h, growth inhibition by 50%
[10] = Brain:plasma compound concentration measurements in mice, 1 h post ip dose; type: in vivo; settings: single ip dose 5 mg/kg, 1 h postdose

half-life at 1.5 μM [1]: ≥ 60 min
half-life at 1.5 μM [2]: 10 to 20 min
Compound: O=C(Nc1ccc2oc(-c3ccccc3)nc2c1)c1ccccc1 [Compound 30]

half-life at 1.5 μM [1]: ≥ 60 min
half-life at 1.5 μM [2]: 10 to 20 min
Compound: O=C(Nc1ccc2oc(-c3ccccc3)nc2c1)N1CCCCC1 [Compound 32]

half-life at 1.5 μM [2]: > 20 min
Compound: O=C(Nc1ccc2sc(-c3ccccc3)nc2c1)N1CCCC1 [Compound 38]

half-life at 1.5 μM [2]: > 20 min
Compound: O=C(Nc1ccc2sc(-c3ccccc3)nc2c1)N1CCCCC1 [Compound 40]

Compound: O=C(Nc1ccc2sc(-c3cccc(F)c3)nc2c1)N1CCN(C(=O)Nc2ccc3sc(-c4cccc(F)c4)nc3c2)CC1 [Compound 49]
T. brucei EC50 [3]: No activity was detected

Compound: O=C(Nc1ccc2sc(-c3ccc(F)c(F)c3)nc2c1)N1CC[C@H](F)C1 [Compound 57, (S)-2-(3,4-Difluorophenyl)-5-(3-fluoro-N-pyrrolidylamido)-benzothiazole]
Cmax, brain [4]: 54.84 ± 4.64 µM
[compd]brain ([4]; 24 h): submicromolar
[compd]plasma ([4]; 24 h, LLQ is 0.010 μM, 50 mg/kg): undetectable
CRL-8155 EC50 [5]: no detectable toxicity
percent of Cmax remaining at the 24 h time point [6]: Less than 1%
average plasma level [7]: 9.1 ± 7.6 µM
average plasma level [8]: 15.8 ± 8.7 µM
HepG2 EC50 [9]: no detectable toxicity
[compd]brain [10]: 9.07 µM and 9.07 ± 3.973 µM

percent of Cmax remaining at the 24 h time point [6]: 34%
percent of Cmax remaining at the 32 h time point [6]: > 17%
Compound: O=C(Nc1ccc2sc(-c3ccc(F)c(F)c3)nc2c1)N1C[C@@H](F)[C@H](F)C1 [Compound 59]
